In ChEMBL document CHEMBL1131996, “Design, combinatorial chemical synthesis and in vitro characterization of novel urea based gelatinase inhibitors” (Bioorg Med Chem Lett, 1999):
“And” between values parts separate entries of the source, which are not always exact repeats. Identical values can stand only once.

target: 72 kDa type IV collagenase (Homo sapiens, UniProt P08253); test: Inhibitory activity against matrix metalloprotease-2 (MMP-2).
Sequence (P08253 whole entry): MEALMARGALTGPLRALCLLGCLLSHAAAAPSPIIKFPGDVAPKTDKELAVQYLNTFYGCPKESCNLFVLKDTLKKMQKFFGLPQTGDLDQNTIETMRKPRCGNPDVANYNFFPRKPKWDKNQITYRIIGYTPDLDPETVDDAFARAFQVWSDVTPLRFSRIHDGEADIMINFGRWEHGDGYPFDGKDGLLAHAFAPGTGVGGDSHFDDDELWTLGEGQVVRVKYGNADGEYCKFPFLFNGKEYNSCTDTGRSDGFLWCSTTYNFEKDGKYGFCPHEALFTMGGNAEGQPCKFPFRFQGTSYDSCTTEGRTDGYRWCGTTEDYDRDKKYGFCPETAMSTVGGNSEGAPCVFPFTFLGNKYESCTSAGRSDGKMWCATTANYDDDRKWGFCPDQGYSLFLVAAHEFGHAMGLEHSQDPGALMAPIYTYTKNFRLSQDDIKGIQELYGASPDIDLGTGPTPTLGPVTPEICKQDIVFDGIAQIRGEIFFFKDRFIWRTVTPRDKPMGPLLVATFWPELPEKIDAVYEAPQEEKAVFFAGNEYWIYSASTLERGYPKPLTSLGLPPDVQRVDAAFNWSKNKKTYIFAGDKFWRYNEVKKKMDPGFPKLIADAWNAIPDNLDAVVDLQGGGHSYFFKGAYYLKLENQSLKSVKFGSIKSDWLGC

First: O=C(CN(CCc1ccc(F)cc1)C(=O)CN(CCCc1ccccc1)C(=O)Nc1ccc(Oc2ccccc2)cc1)NO
Second: O=C(CN(CCCc1ccccc1)C(=O)CN(CCCc1ccccc1)C(=O)Nc1ccc(Oc2ccccc2)cc1)NO
The IC50 of the first is 20-fold higher: 40 µM for the first, 2 µM for the second. The second is the more potent here.

`CC(C)(C)N(CC(=O)NO)C(=O)CN(CCCc1ccccc1)C(=O)Nc1ccc(Oc2ccccc2)cc1` and `CC(C)N(CC(=O)NO)C(=O)CN(CCCc1ccccc1)C(=O)Nc1ccc(Oc2ccccc2)cc1` cannot be ordered by IC50: over 500 µM for the first, over 500 µM for the second.

Compared with `O=C(CN(C(=O)CN(C(=O)Nc1ccc(Oc2ccccc2)cc1)C1CCCc2ccccc21)C1CCCc2ccccc21)NO` (stereo not given), `O=C(CN(C(=O)CN(CCCc1ccccc1)C(=O)Nc1ccc(Oc2ccccc2)cc1)C1CCCc2ccccc21)NO` (stereo not given) is higher in IC50: 60 µM for the first, over 500 µM for the second. The first is the more potent here.

First: CCCCN(CC(=O)NO)C(=O)CN(CCc1ccc(F)cc1)C(=O)Nc1ccc(Oc2ccccc2)cc1
Second: CCCCCCCN(CC(=O)N(CCc1ccc(F)cc1)CC(=O)NO)C(=O)Nc1ccc(Oc2ccccc2)cc1
The IC50 of the first is 2.2-fold lower: 51 µM for the first, 114 µM for the second. The first is the more potent here.

Compared with `CCCCN(CC(=O)N(CC(=O)NO)C(C)CC)C(=O)Nc1ccc(Oc2ccccc2)cc1` (stereo not given), `CCC(C)N(CC(=O)NO)C(=O)CN(CCCc1ccccc1)C(=O)Nc1ccc(Oc2ccccc2)cc1` (stereo not given) is 6.9-fold higher in IC50: 54 µM for the first, 370 µM for the second.

Going from `CCCCCN(CC(=O)NO)C(=O)CN(CCCCc1ccccc1)C(=O)Nc1cc(Cl)ccc1OC` to `CCCCCN(CC(=O)NO)C(=O)CN(CCCc1ccccc1)C(=O)Nc1ccc(Oc2ccccc2)cc1`, the IC50 falls from over 500 µM to 100 µM. The second is the more potent here.

First: O=C(CN(C(=O)CN(C(=O)Nc1ccc(Oc2ccccc2)cc1)C(c1ccccc1)c1ccccc1)C(c1ccccc1)c1ccccc1)NO
Second: O=C(CN(C(=O)CN(CCCc1ccccc1)C(=O)Nc1ccc(Oc2ccccc2)cc1)C(c1ccccc1)c1ccccc1)NO
The IC50 of the first is 4-fold lower: 50 µM for the first, 200 µM for the second.

Going from `CCCCCCCN(CC(=O)NO)C(=O)CN(C(=O)Nc1ccc(OCCCC)cc1)C(c1ccccc1)c1ccccc1` to `CCCCCCCN(CC(=O)NO)C(=O)CN(CCCc1ccccc1)C(=O)Nc1ccc(Oc2ccccc2)cc1`, the IC50 falls from over 500 µM to 150 µM.

Going from `CCCCCN(CC(=O)NO)C(=O)CN(C(=O)Nc1ccc(Oc2ccccc2)cc1)C(C)CCC` (stereo not given) to `CCCCCCCN(CC(=O)NO)C(=O)CN(CCCCC)C(=O)Nc1ccc(Oc2ccccc2)cc1`, the IC50 falls from 160 µM to 60 µM (2.7-fold).

`CCCCN(CC(=O)NO)C(=O)CN(CC1CCCCC1)C(=O)Nc1ccc([N+](=O)[O-])cc1C` and `O=C(CN(CC1CCCCC1)C(=O)CN(CCCc1ccccc1)C(=O)Nc1ccc(Oc2ccccc2)cc1)NO` cannot be ordered by IC50: over 500 µM for the first, over 500 µM for the second.

Going from `CC(C)N(CC(=O)N(CC(=O)NO)C(C)(C)C)C(=O)Nc1ccc(Oc2ccccc2)cc1` to `CCC(C)N(CC(=O)N(CC(=O)NO)C(C)C)C(=O)Nc1ccc(Oc2ccccc2)cc1` (stereo not given), the IC50 falls from 155 µM to 72 µM (2.2-fold). The second is the more potent here.

`CCCC(C)N(CC(=O)NO)C(=O)CN(C(=O)Nc1ccc2ccccc2c1)C1CCCc2ccccc21` (stereo not given) and `CCC(C)N(CC(=O)NO)C(=O)CN(Cc1ccccc1)C(=O)Nc1cccc2ccccc12` (stereo not given) are within 1.5-fold of each other in IC50: 120 µM for the first, 110 µM for the second.

`CC(C)(C)N(CC(=O)N(CC(=O)NO)CC1CCCCC1)C(=O)Nc1ccc(Oc2ccccc2)cc1` and `O=C(CN(Cc1ccccc1)C(=O)CN(CC1CCCCC1)C(=O)Nc1ccc(Oc2ccccc2)cc1)NO` are within 1.5-fold of each other in IC50: 150 µM for the first, 125 µM for the second.

First: O=C(CN(CCCc1ccccc1)C(=O)CN(Cc1ccccc1)C(=O)Nc1ccc(Oc2ccccc2)cc1)NO
Second: O=C(CN(Cc1ccccc1)C(=O)CN(CCCc1ccccc1)C(=O)Nc1ccc(Oc2ccccc2)cc1)NO
The IC50 of the first is 140-fold higher: 43 µM for the first, 0.3 µM for the second. The second is the more potent here.

Going from `CCCC(C)N(CC(=O)NO)C(=O)CN(CCCc1ccccc1)C(=O)Nc1ccc(Oc2ccccc2)cc1` (stereo in doubt; form 1) to `CCCCN(CC(=O)NO)C(=O)CN(CCCc1ccccc1)C(=O)Nc1ccc(Oc2ccccc2)cc1`, the IC50 rises from 23 µM to 230 µM (10-fold).

`CC(C)N(CC(=O)NO)C(=O)CN(CCc1ccc(F)cc1)C(=O)Nc1ccc(Oc2ccccc2)cc1` and `CCCC(C)N(CC(=O)NO)C(=O)CN(CCCc1ccccc1)C(=O)Nc1ccc(Oc2ccccc2)cc1` (stereo in doubt; form 2) are within 1.5-fold of each other in IC50: 90 µM for the first, 100 µM for the second.

Going from `O=C(CN(CCCCc1ccccc1)C(=O)CN(CCCCc1ccccc1)C(=O)Nc1ccc(Oc2ccccc2)cc1)NO` to `CSc1ccccc1NC(=O)N(CCCc1ccccc1)CC(=O)N(CC(=O)NO)C(C)(C)C`, the IC50 rises from 52 µM to 150 µM (2.9-fold). The first is the more potent here.

In the case of `O=C(CN(CCCCc1ccccc1)C(=O)CN(CCCc1ccccc1)C(=O)Nc1ccc(Oc2ccccc2)cc1)NO`, the IC50 is reported as 0.9 µM and 0.3 µM.
